Experimental data as given in ChEMBL document CHEMBL5104094, “Chemistry, biosynthesis and biological activity of terpenoids and meroterpenoids in bacteria and fungi isolated from different marine habitats” (Eur J Med Chem, 2021).
Converted amounts (≈) assume the structure as drawn.

Columns and labels:
HCT-116 [1] = experiment: Cytotoxicity against human HCT-116 cells assessed as lethal dose; format: functional; details: read-out: LD50 (the source's name)
RAW264.7 = experiment: Inhibition of NO production in LPS-stimulated mouse RAW264.7 cells at 10 uM relative to control; format: functional
[2] = Hemolytic activity against human erythrocytes assessed as induction of cell lysis; format: toxicity, cell-based, Erythrocyte
[3] = system: Panel NCI-60 (60 carcinoma cell lines); experiment: Cytotoxicity against human Panel NCI-60 (60 carcinoma cell lines) cells assessed as cell growth inhibition; format: functional, cell-based
Candida parapsilosis = experiment: Antimicrobial activity against Candida parapsilosis assessed as microbial growth inhibition micro broth dilution assay; format: functional, organism-based; details: Lodderomyces parapsilosis
Staphylococcus aureus = experiment: Antimicrobial activity against Staphylococcus aureus assessed as microbial growth inhibition micro broth dilution assay; format: functional, organism-based
Bacillus subtilis = experiment: Antimicrobial activity against Bacillus subtilis assessed as microbial growth inhibition micro broth dilution assay; format: functional, organism-based
Cryptococcus neoformans = experiment: Antimicrobial activity against Cryptococcus neoformans assessed as microbial growth inhibition micro broth dilution assay; format: functional, organism-based
Candida albicans = experiment: Antimicrobial activity against Candida albicans assessed as microbial growth inhibition micro broth dilution assay; format: functional, organism-based
[4] = Cytotoxicity against human BJ cells assessed as cell growth inhibition incubated for 72 hrs by Cell Titer Glo assay relative to control; format: toxicity, cell-based
HCT-116 [5] = experiment: Cytotoxicity against human HCT-116 cells assessed as cell growth inhibition incubated for 72 hrs by Cell Titer Glo assay; format: functional, cell-based; details: HCT-116, 72 h
A549 [6] = experiment: Cytotoxicity against human A549 cells assessed as cell growth inhibition; format: functional, cell-based
HL-60 [7] = experiment: Cytotoxicity against human HL-60 cells assessed as cell growth inhibition; format: functional, cell-based
HCT-116 [8] = experiment: Cytotoxicity against human HCT-116 cells assessed as cell growth inhibition by Alamar blue staining based fluorescence assay; format: functional
[9] = Cytotoxicity against African green monkey cells assessed as cell growth inhibition by Alamar blue staining based fluorescence assay; format: toxicity; details: African green monkey (Chlorocebus sabaeus), Vero cells
[10] = Cytotoxicity against human HTB26 cells assessed as cell growth inhibition by Alamar blue staining based fluorescence assay; format: functional
MCF7 [11] = experiment: Cytotoxicity against human MCF7 cells assessed as cell growth inhibition by Alamar blue staining based fluorescence assay; format: functional
Macrophage = experiment: Cytotoxicity against mouse spleen macrophage assessed as cell growth inhibition; format: functional, cell-based
T-cell = experiment: Cytotoxicity against mouse spleen T-cells assessed as cell growth inhibition; format: functional, cell-based
HL-60 [12] = experiment: Cytotoxicity against human HL-60 cells assessed as cell growth inhibition by MTT assay; format: functional, cell-based
A549 [13] = experiment: Cytotoxicity against human A549 cells assessed as cell growth inhibition by SRB assay; format: functional, cell-based
NCI-H460 [14] = experiment: Induction of apoptosis in human NCI-H460 cells assessed as fold increase in […] at 35 uM incubated for 48 hrs by Annexin V-FITC/PI staining based flow cytometry; format: functional
NCI-H460 [15] = experiment: Cytotoxicity against human NCI-H460 cells assessed as cell growth inhibition incubated for 48 hrs by MTT assay; format: functional, cell-based; details: NCI-H460, 48 h
MCF7 [16] = experiment: Antitumor activity against human MCF7 cells xenografted in athymic nude BALB/c mouse assessed as tumor growth inhibition at 20 mg/kg, iv measured every 4 days for 40 days by caliper method relative to control; format: functional; details: MCF7, 960 h, time 40 day, read-out: TGI
MCF7 [17] = experiment: Antitumor activity against Adriamycin-resistant human MCF7 cells xenografted in athymic nude BALB/c mouse assessed as tumor growth inhibition at 5 mg/kg, iv measured every 4 days for 40 days by caliper method in presence of Adriamycin relative to control; format: functional; details: MCF7, 960 h, time 40 day, read-out: TGI
MCF7 [18] = experiment: Antitumor activity against Adriamycin-resistant human MCF7 cells xenografted in athymic nude BALB/c mouse assessed as tumor growth inhibition at 5 mg/kg, iv measured every 4 days for 40 days by caliper method relative to control; format: functional; details: MCF7, 960 h, time 40 day, read-out: TGI
MCF7 [19] = experiment: Antitumor activity against human MCF7 cells xenografted in athymic nude BALB/c mouse assessed as tumor growth inhibition at 20 mg/kg, iv measured every 4 days for 40 days by caliper method relative to PTX; format: functional; details: MCF7, 960 h, time 40 day, read-out: TGI
MCF7 [20] = experiment: Antitumor activity against human MCF7 cells xenografted in athymic nude BALB/c mouse assessed as tumor growth inhibition at 10 mg/kg, iv measured every 4 days for 40 days by caliper method relative to control; format: functional; details: MCF7, 960 h, time 40 day, read-out: TGI
MCF7 [21] = experiment: Antitumor activity against human MCF7 cells xenografted in athymic nude BALB/c mouse assessed as tumor growth inhibition at 5 mg/kg, iv measured every 4 days for 40 days by caliper method relative to control; format: functional; details: MCF7, 960 h, time 40 day, read-out: TGI
NCI-H460 [22] = experiment: Cytotoxicity against human NCI-H460 assessed as inhibition of cell viability incubated for 48 hrs by MTT assay; format: functional, cell-based; details: NCI-H460, 48 h
NCI-H446 = experiment: Cytotoxicity against human NCI-H446 assessed as inhibition of cell viability incubated for 48 hrs by MTT assay; format: functional, cell-based; details: NCI-H446, 48 h
SMMC-7721 [23] = experiment: Cytotoxicity against human SMMC-7721 cells assessed as cell growth inhibition incubated for 24 hrs by CCK8 assay; format: functional, cell-based; details: SMMC-7721, 24 h
SMMC-7721 [24] = experiment: Cytotoxicity against human SMMC-7721 cells assessed as cell growth inhibition incubated for 48 hrs by CCK8 assay; format: functional, cell-based; details: SMMC-7721, 48 h

**Q.** With `COc1cc(OC)c2c(c1)[C@H]([C@H](O)/C=C(\C)CC[C@@H]1C(C)=CC[C@@H]3C(C)(C)CCC[C@@]13C)CCC2=O` as the molecule, how does the CC50 (HCT-116 [1]) read?
**A.** The CC50 was 2 µg/mL (≈ 4.04 µM).

**Q.** For `CC1=CC(=O)C[C@@]2(C)CC[C@@H](C(C)CO)C[C@H]12` (stereo partly drawn), which inhibition at 10 µM (RAW264.7) is on record?
**A.** The inhibition at 10 µM was 22.5%.

**Q.** With `Cc1cc2c(c(=O)o1)C[C@@H]1[C@@]3(C)[C@H](O)CC(=O)OC(C)(C)[C@@H]3[C@H](O)C[C@@]1(C)O2` as the molecule, how does the EC50 [2] read?
**A.** The EC50 was 1150 µM.

**Q.** With `CC1=CCC[C@@H](C)[C@]1(C)CC[C@@]1(C)c2c(O)cc3c(c2O[C@@H]1C)C(=O)C(C)=C(O)C3=O` as the molecule, how does the IC50 [3] read?
**A.** The IC50 was 10 µM.

**Q.** Which IC50 (Candida parapsilosis) does the source give for `CC1=CC[C@@](O)([C@@]2(C)CCC(=O)O2)C[C@@H]1O` here?
**A.** The IC50 was 3 µg/mL.

**Q.** What about the IC50 (Staphylococcus aureus) of the same molecule?
**A.** Its IC50 is 3 µg/mL.

**Q.** And the IC50 (Bacillus subtilis)?
**A.** Its IC50 is 3 µg/mL.

**Q.** And the IC50 (Cryptococcus neoformans)?
**A.** The IC50 was 3 µg/mL.

**Q.** What about the IC50 (Candida albicans) of the same molecule?
**A.** Its IC50 is 3 µg/mL.

**Q.** With `CC1(C)CCC[C@]2(C)[C@H]3Cc4c(c(O)c(O)c5nc(C(=O)O)ccc45)O[C@]3(C)CC[C@@H]12` as the molecule, how does the inhibition at 72 h [4] read?
**A.** The inhibition at 72 h was 43%.

**Q.** What about the IC50 (HCT-116 [5]) of the same molecule?
**A.** Its IC50 is 10 µM.

**Q.** Which IC50 (A549 [6]) does the source give for `CC1(C)CCC[C@@](C)(c2ccc(CO)cc2O)O1` here?
**A.** The IC50 was greater than 50 µg/mL.

**Q.** And the IC50 (HL-60 [7])?
**A.** The IC50 was greater than 50 µg/mL.

**Q.** With `C=C(C)C1C[C@H](O)C2(C)CCCC3C2C1CC(C)C3(C)CC/C(C)=C/[C@@H](O)[C@@H]1CCC(=O)c2c(OC)cc(OC)cc21` (stereo partly drawn) as the molecule, how does the IC50 (HCT-116 [8]) read?
**A.** The IC50 was 11.9 µM.

**Q.** And the IC50 [9]?
**A.** Its IC50 is 23.7 µM.

**Q.** What about the IC50 [10] of the same molecule?
**A.** Its IC50 is 10.1 µM.

**Q.** What about the IC50 (MCF7 [11]) of the same molecule?
**A.** The IC50 was 7.8 µM.

**Q.** What does the source list for `CC(=O)c1nncc2c1C(=O)C1=C(OC(C)(C)[C@H](Cl)C1=O)[C@]2(O)C[C@H]1C(C)(C)[C@@H](Cl)CC[C@]1(C)O`?
**A.** IC50 (Macrophage): 40 µM; IC50 (T-cell): 40 µM

**Q.** Which IC50 (HL-60 [12]) does the source give for `CO[C@]12C=C3[C@@H]4O[C@@H]4[C@H](OC(C)=O)[C@H](C)[C@@]3(C)C[C@]13O[C@]3(C)CO2` here?
**A.** Its IC50 is 28.3 µM.

**Q.** What about the IC50 (A549 [13]) of the same molecule?
**A.** Its IC50 is 5.2 µM.

**Q.** With `C[C@]12C3=CC(=O)OCC3=C[C@H]3OC(=O)[C@@](C)(C=C[C@H]1O)[C@H]32` [ASPEROLIDE A] as the molecule, how does the “fold change (FC)” value (NCI-H460 [14]) read?
**A.** The value was 2.9.

**Q.** What about the IC50 (NCI-H460 [15]) of the same molecule?
**A.** The IC50 was 17.7 µM.

**Q.** For `CO[C@H]1O[C@@]2(OC)C[C@@](C)(O)[C@H]3C[C@@]4(C)CC[C@H]([C@@H](C)/C=C\C=C(C)C)[C@@H]4C/C=C/1[C@H]32` [OPHIOBOLIN O], which inhibition in vivo at 20 mg/kg (MCF7 [16]) is on record?
**A.** The inhibition in vivo at 20 mg/kg was 69%.

**Q.** What about the inhibition in vivo at 5 mg/kg (MCF7 [17]) of the same molecule?
**A.** The inhibition in vivo at 5 mg/kg was 71%.

**Q.** And the inhibition in vivo at 5 mg/kg (MCF7 [18])?
**A.** Its inhibition in vivo at 5 mg/kg is 23%.

**Q.** And the inhibition in vivo at 20 mg/kg (MCF7 [19])?
**A.** The inhibition in vivo at 20 mg/kg was 73%.

**Q.** What about the inhibition in vivo at 10 mg/kg (MCF7 [20]) of the same molecule?
**A.** The inhibition in vivo at 10 mg/kg was 46%.

**Q.** What about the inhibition in vivo at 5 mg/kg (MCF7 [21]) of the same molecule?
**A.** The inhibition in vivo at 5 mg/kg was 35%.

**Q.** Which IC50 (NCI-H460 [22]) does the source give for `C[C@@]12C3=CC(=O)OCC3=C[C@H]3OC(=O)[C@](C)([C@H]31)[C@@H](O)[C@H]1O[C@H]12` [WENTILACTONE A] here?
**A.** The IC50 was 5.56 µM.

**Q.** What about the IC50 (NCI-H446) of the same molecule?
**A.** The IC50 was 1.9 µM.

**Q.** Which IC50 (SMMC-7721 [23]) does the source give for `C[C@@]12C[C@@H](O)C[C@]3(C)C4=CC(=O)OCC4=C[C@@H](OC1=O)[C@@H]23` [WENTILACTONE B] here?
**A.** Its IC50 is 31 µM.

**Q.** What about the IC50 (SMMC-7721 [24]) of the same molecule?
**A.** Its IC50 is 19 µM.
